The source of these data is patent US20040127395A1 (priority 2002, published 2004).

Assay [1] relates to mast cells in the mouse trachea. The experiment in a line: Histamine-induced accumulation of mast cells in the mouse trachea in vivo.
The next assay concerns human eosinophils. The experiment in a line: Histamine-induced eosinophil shape change (GAFS). It counts as cell-based. Conditions: for Fold Change: eosinophil shape change; for IC50: Eosinophil, human eosinophils, read-out: IC50 for inhibition of histamine-induced eosinophil shape change. The method, then:
Human granulocytes were isolated from human blood by a Ficoll gradient. The red blood cells were lysed with 5-10× Qiagen lysis buffer at room temperature for 5-7 min. Granulocytes were harvested and washed once with FACS buffer. The cells were resuspended at a density of 2×10^6 cells/mL in reaction buffer. […] Ten minutes later, the cells were transferred to ice and fixed with 250 μL of ice-cold fixative buffer (2% formaldehyde) for 1 min.

For assay [2], the system named is mouse bone marrow-derived mast cells. The experiment in a line: Histamine-induced mast cell chemotaxis in vitro (transwell). It counts as cell-based. The method, then: Mast cells were differentiated from bone marrow derived from BALB/c or C57bl/6j mice. Mice were sacrificed by asphyxiation under 95% CO2 and femurs were removed. Bone marrow was aseptically isolated from the femurs. The cells (5×10^5/mL) were cultured at 37° C. with 5% CO2 in culture medium consisting of RPMI with 10% FCS, 0.1 mM non-essential amino acids, 50 μg/mL penicillin/streptomycin and 20% conditioned WEHI-3 medium. Conditioned WEHI-3 medium was prepared from WEHI-3 cells (ATCC), which were cultured in Iscoves Dulbeccos medium with 10% FCS, 4 mM L-glutamine, 1.5 g/L sodium carbonate, 0.05 μM beta-mercaptoethanol and 50 μg/mL penicillin/streptomycin. The filtered supernatant was used as the conditioned WEHI-3 medium. After 16 h in culture, the bone marrow cells were transferred to a new flask. The medium was refreshed once per week. After four weeks, the cells were tested by flow cytometry for IgE receptor and CD117 (c-kit) expression. Mast cells were incubated with anti-DNP IgE (ICN Pharmaceuticals, Costa Mesa, Calif.) or vehicle for 30 min, followed by FITC labeled anti-IgE (Pharmingen) or FITC labeled CD117 (Pharmingen) for 30 min on ice. The cultured mast cells consisted of a homogeneous population which was >99% IgE receptor positive and >99% CD117 positive. Mast cells of four to eight weeks culture time were used for experiments.
Transwells (Costar, Cambridge, Mass.) of a pore size of […] were coated with 100 μL of 100 ng/mL human fibronectin (Sigma) for 2 h at room temperature. […] Mast cells (2×10^5/well) were added to the top chamber. The plates were incubated for 3 h at 37° C. Transwells were removed and the number of cells in the bottom chamber was counted for 60 sec using a flow cytometer.

Assay [3] deals with ovalbumin-sensitized mice. The experiment in a line: Ovalbumin-induced lung inflammation model, cell counts in BAL fluid. It counts as in vivo, mouse. Conditions: for maximum reduction in the number of eosinophils: BAL fluid.
For assay [4], the target named is human histamine H4 receptor (Homo sapiens, UniProt Q9H3N8).
Sequence of human histamine H4 receptor (Q9H3N8 whole entry): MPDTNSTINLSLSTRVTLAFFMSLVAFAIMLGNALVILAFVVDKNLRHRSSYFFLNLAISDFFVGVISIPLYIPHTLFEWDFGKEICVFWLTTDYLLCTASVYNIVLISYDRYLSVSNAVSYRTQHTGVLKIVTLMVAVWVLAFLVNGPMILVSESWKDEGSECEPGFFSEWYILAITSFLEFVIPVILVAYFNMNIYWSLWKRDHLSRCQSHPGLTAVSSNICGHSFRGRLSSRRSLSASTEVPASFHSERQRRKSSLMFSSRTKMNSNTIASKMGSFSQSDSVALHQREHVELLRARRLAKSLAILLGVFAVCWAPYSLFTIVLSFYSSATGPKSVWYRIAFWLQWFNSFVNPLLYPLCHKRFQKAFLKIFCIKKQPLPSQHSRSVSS
Assay [5] has as its system ovalbumin-sensitized mice. Nature of the assay: Airway hyper-responsiveness to methacholine in ovalbumin-sensitized mice (whole body plethysmography). It counts as in vivo, mouse. The settings on record: any of the first three doses, FIG. 7. The procedure:
Mice (n=8 per group) were sensitized by intraperitoneal injection of ovalbumin/alum on Days 0 and 14. On each of Days 21 through 24, mice were pretreated for 15 min with vehicle or with (5-chloro-1H-benzoimidazol-2-yl)-(4-methyl-piperazin-1-yl)-methanone prior to a 20 min challenge with PBS or ovalbumin.
In one experiment, (5-chloro-1H-benzoimidazol-2-yl)-(4-methyl-piperazin-1-yl)-methanone was administered p.o. at 5, 20, or 50 mg/kg. In a second experiment, (5-chloro-1H-benzoimidazol-2-yl)-(4-methyl-piperazin-1-yl)-methanone was administered p.o. at 0.5, 2, or 5 mg/kg.
Airway hyper-responsiveness in ovalbumin-sensitized animals was monitored in conscious mice by whole body plethysmography (Buxco). Mice (n=8 per group) were treated as described above for the cell measurements.

The mark [6] stands for this setting: p.o., all doses of 5 mg/kg and greater, FIG. 5.
[7] abbreviates: p.o., highest dose tested (50 mg/kg).

For `NCCc1c[nH]cn1` [Histamine, reference compound], in assay [1] (0.1 M histamine aerosol, 20 min on 2 consecutive days), the “migration of mast cells in the trachea” value is on record as “induces a migration of mast cells into the sub-epithelial space”. Besides, in the assay with human eosinophils (histamine as stimulus), the “shape change in eosinophils” value is recorded as “induces a dose-dependent shape change”. Further, in assay [2] (histamine in lower chamber (1.25-20 μM), FIG. 1), the “migrated mast cells in the lower chamber” value was “dose-dependent increase in migrated mast cells”.
Turning to `CNC(=C[N+](=O)[O-])NCCSCc1ccc(CN(C)C)o1` [ranatidine], the “effect on histamine-induced eosinophil shape change” value with human eosinophils (antagonist 10 μM) is “did not alter”. Further, the “Fold Change” value in the assay on human eosinophils (histamine 0 μM, antagonist 10 μM) came out at 1.00; with human eosinophils (histamine 0.01 μM, antagonist 10 μM), 1.04; in the assay with human eosinophils (histamine 0.1 μM, antagonist 10 μM), 1.21; in the assay on human eosinophils (histamine 1 μM, antagonist 10 μM), 1.49; in the assay with human eosinophils (histamine 10 μM, antagonist 10 μM) it was 1.64.
For the compound `CN1CCN(C(=O)c2cc3cc(Cl)ccc3[nH]2)CC1` [(5-Chloro-1H-indol-2-yl)-(4-methyl-piperazin-1-yl)-methanone], in assay [3] (s.c., 60 and 100 mg/kg, FIG. 6), the “number of eosinophils in BAL fluid” value is reported as “significantly reduced” and the “total cell number in BAL fluid” value is recorded as “significantly reduced”. Moreover, the “maximum reduction in the number of eosinophils” value in assay [3] (s.c.) is listed as 50%. Moreover, in assay [3] (s.c., same doses that provided reduction in eosinophils), the “number of lymphocytes in BAL fluid” value is reported as “significantly reduced”. Also, the “histamine-induced migration of mast cells into the sub-epithelial space” value in assay [1] (20 mg/kg subcutaneous, 15 min prior to each histamine aerosol, FIG. 4) is on record as “blocked”. Further, in the assay with human eosinophils, the IC50 (as a rule, the concentration that inhibits the measured activity by half) is 270 nM.
On to `CN1CCN(C(=O)c2cc3cc(Br)ccc3[nH]2)CC1` [(5-Bromo-1H-indol-2-yl)-(4-methyl-piperazin-1-yl)-methanone], for which, in assay [4], the inhibition constant Ki (in general, the dissociation constant of the complex between target and ligand, obtained from inhibition or displacement) is 8 nM.
As for `CN1CCN(C(=O)c2nc3cc(Cl)ccc3[nH]2)CC1` [(5-Chloro-1H-benzoimidazol-2-yl)-(4-methyl-piperazin-1-yl)-methanone], the “macrophages in BAL fluid” value in assay [3] (p.o., 5 mg/kg, second experiment) was “reduction”. In addition, the “maximum reduction in the number of eosinophils” value in assay [3] (p.o.) worked out at 50%. Besides, in assay [3] (setting [6]), the “number of eosinophils in BAL fluid” value is listed as “significantly reduced” and the “total cell number in BAL fluid” value was “significantly reduced”. Moreover, in assay [3] (setting [7]), the “number of macrophages in BAL fluid” value is given as “reduction” and the “number of neutrophils in BAL fluid” value is reported as “increase”. Also, the “number of lymphocytes in BAL fluid” value in assay [3] (p.o., same doses which provided maximum reduction in eosinophils) was “significantly reduced”. In assay [5], the “airway hyper-responsiveness to methacholine (Penh)” value is recorded as “reduced”. In addition, in assay [2] (Mus musculus, Mast cell), the inhibition (as a rule, how much of the control response was suppressed) at 1 µM was determined as 84% and the inhibition at 10 µM was determined as 97%.
Consider `S=C(NC1CCCCC1)N1CCC(c2cnc[nH]2)CC1` [Thioperamide], for which, in the assay on human eosinophils, the IC50 amounted to 1500 nM.
